Data from patent publication US20020137929A1, “1 - (3-heterocyclylphenyl) isothiourea, -isourea, -guanidine and -amidine herbicidal agents” (Intellectual Property Department, BASF Aktiengesellschaft, priority 1998, published 2002).

How the values were obtained:
[1] = tested on: GLXMAW (Soybean, Williams); experiment: Preemergence herbicidal evaluation; type: in vivo, Glycine max, (L.) Merr. cv Williams; settings: rated 4-5 weeks after treatment
Method in brief: (§1)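 Steps: mix seeds into potting soil; plant atop ~1 inch soil; spray compound in aqueous acetone (~0.0156-0.500 kg/ha equivalent); maintain in greenhouse with watering; rate visually 0-9 versus control at 4-5 weeks.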

[2] = tested on: IPOHE (Morningglory, Ivyleaf); experiment: Postemergence herbicidal evaluation; type: in vivo, Ipomoea hederacea; settings: postemergence
Method in brief: (§2)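 Scores (0–9) reflect plant stand, vigor, malformation, size, chlorosis and general appearance relative to control, read 4 to 5 weeks after treatment and averaged where tests were repeated. Application: about 0.0156–0.500 kg/ha sprayed at 40 psi onto two-week seedlings.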

[3] = tested on: ABUTH (Velvetleaf); experiment: Preemergence herbicidal evaluation; type: in vivo, Abutilon theophrasti; settings: rated 4-5 weeks after treatment
Method in brief: as §1

[4] = tested on: SAGPY (Arrowhead (Pygmaea)); experiment: Preemergence weed control under flooded paddy conditions; type: in vivo, Sagittaria pygmaea; settings: rated 3-4 weeks after treatment
Method in brief: (§3)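 Greenhouse paddy assay. Acetone/water (50/50 v/v) solutions dosed into flood water, equivalent to about 0.0313 to 0.500 kg/ha active ingredient, over seeds planted 0.5 cm deep in silt loam. Score: 0-9 visual, based on stand, vigor, malformation, size and chlorosis, 3 to 4 weeks after treatment.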

[5] = tested on: GALAP (Galium); experiment: Preemergence herbicidal evaluation; type: in vivo, Galium aparine; settings: rated 4-5 weeks after treatment
Method in brief: as §1

[6] = tested on: ECHCG (Barnyardgrass); experiment: Preemergence herbicidal evaluation; type: in vivo, Echinochloa crus-galli; settings: rated 4-5 weeks after treatment
Method in brief: as §1

[7] = tested on: AMBEL (Ragweed, Common); experiment: Preemergence herbicidal evaluation; type: in vivo, Ambrosia artemisifolia; settings: rated 4-5 weeks after treatment
Method in brief: as §1

[8] = tested on: ZEAMX (Corn, Field); experiment: Postemergence herbicidal evaluation; type: in vivo, Zea mays; settings: postemergence
Method in brief: as §2

[9] = tested on: GLXMAW (Soybean, Williams); experiment: Postemergence herbicidal evaluation; type: in vivo, Glycine max, (L.) Merr. cv Williams; settings: postemergence
Method in brief: as §2

[10] = tested on: SETVI (Foxtail, Green); experiment: Preemergence herbicidal evaluation; type: in vivo, Setaria viridis; settings: rated 4-5 weeks after treatment
Method in brief: as §1

[11] = tested on: AMBEL (Ragweed, Common); experiment: Postemergence herbicidal evaluation; type: in vivo, Ambrosia artemisifolia; settings: postemergence
Method in brief: as §2

[12] = tested on: CASOB (Sicklepod); experiment: Preemergence herbicidal evaluation; type: in vivo, Cassia obtusifolia; settings: rated 4-5 weeks after treatment
Method in brief: as §1

[13] = tested on: CYPSE (Flatsedge); experiment: Preemergence weed control under flooded paddy conditions; type: in vivo, Cyperus serotinus; settings: rated 3-4 weeks after treatment
Method in brief: as §3

[14] = rate 0.0313 kg/ha, rating scale 0-9
[15] = rate 0.0625 kg/ha, rating scale 0-9
[16] = rate 0.1250 kg/ha, rating scale 0-9
[17] = rate 0.2500 kg/ha, rating scale 0-9

Cn1c(C(F)(F)F)cc(=O)n(-c2cc(N=C3SCC(=O)N3Cc3ccccn3)c(Cl)cc2F)c1=O [Compound 131]
2.0: Preemergence herbicidal rating ABUTH [3, 16] | herbicidal effect rating, SAGPY ([4]; 0.2500 kg/ha) | Preemergence herbicidal rating GALAP [5, 16] | Preemergence herbicidal rating ECHCG [6, 17] | Preemergence herbicidal rating CASOB [12, 17]
4.5: Herbicidal rating ZEAMX ([8]; rate 0.0156 kg/ha) | Herbicidal rating ZEAMX ([8]; rate 0.0313 kg/ha) | Herbicidal rating ZEAMX ([8]; rate 0.0625 kg/ha) | Herbicidal rating GLXMAW ([9]; rate 0.0156 kg/ha)
5.5: Herbicidal rating GLXMAW ([9]; rate 0.0625 kg/ha)
3.0: Preemergence herbicidal rating GALAP [5, 15] | Preemergence herbicidal rating SETVI [10, 17]
0.0: Preemergence herbicidal rating GLXMAW [1, 14] | Preemergence herbicidal rating ABUTH [3, 14] | Preemergence herbicidal rating ABUTH [3, 15] | herbicidal effect rating, SAGPY ([4]; 0.1250 kg/ha) | Preemergence herbicidal rating GALAP [5, 14] | Preemergence herbicidal rating ECHCG [6, 14] | Preemergence herbicidal rating ECHCG [6, 15] | Preemergence herbicidal rating ECHCG [6, 16] | Preemergence herbicidal rating AMBEL [7, 14] | Preemergence herbicidal rating AMBEL [7, 15] | Preemergence herbicidal rating AMBEL [7, 16] | Preemergence herbicidal rating AMBEL [7, 17] | Preemergence herbicidal rating SETVI [10, 14] | Preemergence herbicidal rating SETVI [10, 15] | Preemergence herbicidal rating SETVI [10, 16] | Preemergence herbicidal rating CASOB [12, 14] | Preemergence herbicidal rating CASOB [12, 15] | Preemergence herbicidal rating CASOB [12, 16] | herbicidal effect rating, CYPSE ([13]; 0.1250 kg/ha) | herbicidal effect rating, CYPSE ([13]; 0.2500 kg/ha)
5.0: Herbicidal rating GLXMAW ([9]; rate 0.0313 kg/ha)
7.0: Herbicidal rating IPOHE ([2]; rate 0.0156 kg/ha) | Herbicidal rating AMBEL ([11]; rate 0.0156 kg/ha)
9.0: Herbicidal rating IPOHE ([2]; rate 0.0313 kg/ha) | Herbicidal rating IPOHE ([2]; rate 0.0625 kg/ha) | Preemergence herbicidal rating ABUTH [3, 17] | Preemergence herbicidal rating GALAP [5, 17] | Herbicidal rating AMBEL ([11]; rate 0.0313 kg/ha) | Herbicidal rating AMBEL ([11]; rate 0.0625 kg/ha)
1.0: Preemergence herbicidal rating GLXMAW [1, 15] | Preemergence herbicidal rating GLXMAW [1, 16] | Preemergence herbicidal rating GLXMAW [1, 17]

Cn1c(C(F)(F)F)cc(=O)n(-c2cc(N=C3SCC(=O)N3CC(=O)OCC3CCCCC3)c(Cl)cc2F)c1=O [Compound 123, Cyclohexylmethyl 2-{{2-chloro-5-[3,6-dihydro-3-methyl-2,6-dioxo-4-(trifluoromethyl)-1(2H)-pyrimidinyl]-4-fluorophenyl}imino}-4-oxo-3-thiazolidineacetate]
7.0: Preemergence herbicidal rating GALAP ([5]; rate 0.1250 kg/ha) | Preemergence herbicidal rating ECHCG ([6]; rate 0.5000 kg/ha) | Herbicidal rating ZEAMX ([8]; rate 0.0313 kg/ha) | Preemergence herbicidal rating SETVI ([10]; rate 0.0156 kg/ha) | Preemergence herbicidal rating SETVI ([10]; rate 0.0313 kg/ha) | Preemergence herbicidal rating SETVI ([10]; rate 0.0625 kg/ha)
6.0: Preemergence herbicidal rating GLXMAW ([1]; rate 0.5000 kg/ha) | herbicidal effect rating, SAGPY ([4]; 0.0625 kg/ha) | herbicidal effect rating, SAGPY ([4]; 0.1250 kg/ha) | Preemergence herbicidal rating GALAP ([5]; rate 0.2500 kg/ha)
4.0: Preemergence herbicidal rating GLXMAW ([1]; rate 0.1250 kg/ha) | Preemergence herbicidal rating ECHCG ([6]; rate 0.2500 kg/ha) | Preemergence herbicidal rating AMBEL ([7]; rate 0.1250 kg/ha)
5.0: herbicidal effect rating, SAGPY ([4]; 0.0313 kg/ha) | herbicidal effect rating, CYPSE ([13]; 0.0313 kg/ha)
6.5: Herbicidal rating ZEAMX ([8]; rate 0.0156 kg/ha) | Herbicidal rating GLXMAW ([9]; rate 0.0156 kg/ha) | Herbicidal rating GLXMAW ([9]; rate 0.0313 kg/ha)
3.0: Preemergence herbicidal rating GALAP ([5]; rate 0.0313 kg/ha) | Preemergence herbicidal rating GALAP ([5]; rate 0.0625 kg/ha) | Preemergence herbicidal rating AMBEL ([7]; rate 0.0625 kg/ha) | Preemergence herbicidal rating CASOB ([12]; rate 0.5000 kg/ha)
7.5: Herbicidal rating ZEAMX ([8]; rate 0.0625 kg/ha) | Herbicidal rating ZEAMX ([8]; rate 0.1250 kg/ha)
9.0: Preemergence herbicidal rating GLXMAW ([1]; rate 0.2500 kg/ha) | Herbicidal rating IPOHE ([2]; rate 0.0156 kg/ha) | Herbicidal rating IPOHE ([2]; rate 0.0313 kg/ha) | Herbicidal rating IPOHE ([2]; rate 0.0625 kg/ha) | Herbicidal rating IPOHE ([2]; rate 0.1250 kg/ha) | Preemergence herbicidal rating ABUTH ([3]; rate 0.0156 kg/ha) | Preemergence herbicidal rating ABUTH ([3]; rate 0.0313 kg/ha) | Preemergence herbicidal rating ABUTH ([3]; rate 0.0625 kg/ha) | Preemergence herbicidal rating ABUTH ([3]; rate 0.1250 kg/ha) | Preemergence herbicidal rating ABUTH ([3]; rate 0.2500 kg/ha) | Preemergence herbicidal rating ABUTH ([3]; rate 0.5000 kg/ha) | Preemergence herbicidal rating GALAP ([5]; rate 0.5000 kg/ha) | Preemergence herbicidal rating AMBEL ([7]; rate 0.2500 kg/ha) | Preemergence herbicidal rating AMBEL ([7]; rate 0.5000 kg/ha) | Herbicidal rating GLXMAW ([9]; rate 0.1250 kg/ha) | Preemergence herbicidal rating SETVI ([10]; rate 0.1250 kg/ha) | Preemergence herbicidal rating SETVI ([10]; rate 0.2500 kg/ha) | Preemergence herbicidal rating SETVI ([10]; rate 0.5000 kg/ha) | Herbicidal rating AMBEL ([11]; rate 0.0156 kg/ha) | Herbicidal rating AMBEL ([11]; rate 0.0313 kg/ha) | Herbicidal rating AMBEL ([11]; rate 0.0625 kg/ha) | Herbicidal rating AMBEL ([11]; rate 0.1250 kg/ha) | herbicidal effect rating, CYPSE ([13]; 0.0625 kg/ha) | herbicidal effect rating, CYPSE ([13]; 0.1250 kg/ha) | herbicidal effect rating, CYPSE ([13]; 0.2500 kg/ha)
2.0: Preemergence herbicidal rating GALAP ([5]; rate 0.0156 kg/ha) | Preemergence herbicidal rating AMBEL ([7]; rate 0.0156 kg/ha)
0.0: Preemergence herbicidal rating GLXMAW ([1]; rate 0.0156 kg/ha) | Preemergence herbicidal rating GLXMAW ([1]; rate 0.0313 kg/ha) | Preemergence herbicidal rating ECHCG ([6]; rate 0.0156 kg/ha) | Preemergence herbicidal rating ECHCG ([6]; rate 0.0313 kg/ha) | Preemergence herbicidal rating ECHCG ([6]; rate 0.0625 kg/ha) | Preemergence herbicidal rating CASOB ([12]; rate 0.0156 kg/ha) | Preemergence herbicidal rating CASOB ([12]; rate 0.0313 kg/ha) | Preemergence herbicidal rating CASOB ([12]; rate 0.0625 kg/ha) | Preemergence herbicidal rating CASOB ([12]; rate 0.1250 kg/ha)
8.0: herbicidal effect rating, SAGPY ([4]; 0.2500 kg/ha) | Herbicidal rating GLXMAW ([9]; rate 0.0625 kg/ha)
1.0: Preemergence herbicidal rating GLXMAW ([1]; rate 0.0625 kg/ha) | Preemergence herbicidal rating ECHCG ([6]; rate 0.1250 kg/ha) | Preemergence herbicidal rating AMBEL ([7]; rate 0.0313 kg/ha)
